Patent US8741963B2, “S1P receptor modulators for treating multiple sclerosis” (Novartis AG, priority 2006, dated 2014)

System: Relapsing Experimental Autoimmune Encephalomyelitis (EAE)
Assay: Relapsing Experimental Autoimmune Encephalomyelitis (EAE), vascular casts quantitated by micro computer tomography
Type: in vivo, female Lewis rats
Conditions: rat relapsing EAE
Text: In Vivo: Relapsing Experimental Autoimmune Encephalomyelitis (EAE)
Disease is induced in female Lewis rats by immunization with guinea pig spinal cord tissue emulsified in complete Freund's adjuvant. […] On day 26 rats are thoracectomized after having been deeply anesthetized with Isoflurane (3%, 20 L/min) and perfused through the left ventricle of the heart. The left ventricle is punctured with a 19 gauge needle from a winged infusion set (SV-19BLK; Termudo, Elkton, Md.), which is connected to an airtight pressurized syringe containing the rinsing solution (NaCl 0.9% with 250,000 U/I heparin at 35° C.). The right atrium is punctured to provide outflow, and the perfusate is infused under a precise controlled pressure of 120 mm Hg. The perfusion is continued for 5 min (at a constant rate of 20 ml/min) followed by a pre-fixation solution (2% performaldehyde in PBS at 35° C.). Finally, up to 30 ml of polyurethane resin (PUII4; Vasqtec, Zürich, Switzerland) is infused at the same rate. After 48 h, the resin-filled brain and spinal cord are excised from the animal and the soft tissue removed by maceration in 7.5% KOH during 24 hr at 50° C. The casts are then thoroughly cleaned with and stored in distilled water before drying by lyophilization. These vascular casts are quantitated using micro computer tomography.

[1] = hydrochloride salt form, daily 0.3 mg/kg p.o.

## CCCCCCCCc1ccc(CCC(N)(CO)CO)cc1.Cl [Compound A, 2-amino-2-[2-(4-octylphenyl)ethyl]propane-1,3-diol]
Dose of from 0.1 to 20 mg/kg p.o.
  disease-associated neo-angiogenesis: significantly blocks
[1]
  disease-associated angiogenesis: fully blocks
  relapse phases: completely inhibits
Hydrochloride salt form, p.o. 0.3 mg/kg every 2nd or 3rd day or once a week
  effect on disease-associated angiogenesis and relapse phases, intermittent administration: The same effect is obtained
